Test systems include A498 renal; A549 NSCLC; COLO 205 colon; HCC-2998 colon; HCT-116 colon; HCT-15 colon; HOP-92 NSCLC; HS 578T breast; KM12 colon; M14 melanoma; MCF7 breast; MDA-MB-435; MOLT-4 leukemia; NCI/ADR-RES ovarian; OVCAR-5 ovarian; RPMI-8226 leukemia; RXF 393 renal; SF-295 CNS; SW-620 colon; MALME-3M melanoma.
Holding throughout (experiment): growth of human tumour cells (NCI), 48 h

“And” between values parts separate entries of the source, which are not always exact repeats. Equal values may be shown once.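 Compound exposure: 48 hours, 5 concentrations, 96-well plates. The concentration for full growth arrest is given as TGI.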

In the case of `O=C(CC(C(=O)c1ccco1)c1ccsc1)c1ccco1` (stereo unspecified), the TGI in the assay with A498 renal, with A549 NSCLC, with COLO 205 colon, in the assay with HCC-2998 colon, in the assay with HCT-116 colon and in the assay with HCT-15 colon was above 100 µM each time. Besides, the TGI with HOP-92 NSCLC, in the assay on HS 578T breast, in the assay with KM12 colon, with M14 melanoma, in the assay on MCF7 breast and in the assay on MDA-MB-435 was above 100 µM in each case. Also, the TGI in the assay on MOLT-4 leukemia, with NCI/ADR-RES ovarian, in the assay on OVCAR-5 ovarian, with RPMI-8226 leukemia, with RXF 393 renal and in the assay on SF-295 CNS was above 100 µM in each case. The TGI in the assay with SW-620 colon is above 100 µM.

Consider `Cc1ccc(C)n1-n1c(Cc2ccccc2)n[nH]c1=O`, for which the TGI in the assay on A498 renal, in the assay on A549 NSCLC, in the assay on COLO 205 colon, in the assay on HCC-2998 colon, with HCT-116 colon and in the assay with HCT-15 colon was above 100 µM in each case. In addition, the TGI in the assay on HS 578T breast, in the assay with KM12 colon, in the assay with M14 melanoma, with MALME-3M melanoma, in the assay on MCF7 breast and in the assay on MDA-MB-435 was above 100 µM in each case. For the same compound, the TGI in the assay on MOLT-4 leukemia, in the assay on NCI/ADR-RES ovarian, in the assay on OVCAR-5 ovarian, in the assay with RPMI-8226 leukemia, in the assay on RXF 393 renal and in the assay on SF-295 CNS was above 100 µM each time. The compound further showed a TGI in the assay with SW-620 colon above 100 µM.

In the case of `O=C(O)CN1CCN2CCOCCOCCN(CC1)CCN(CC(=O)O)CC2`, the TGI in the assay on A498 renal, in the assay on A549 NSCLC, in the assay on COLO 205 colon, in the assay with HCT-116 colon, with HCT-15 colon and with HOP-92 NSCLC was above 100 µM in each case. The TGI in the assay on HS 578T breast, with KM12 colon, with M14 melanoma, in the assay with MALME-3M melanoma, with MCF7 breast and in the assay on MDA-MB-435 was above 100 µM each time. Moreover, the TGI with NCI/ADR-RES ovarian, in the assay on OVCAR-5 ovarian, in the assay on RPMI-8226 leukemia, in the assay on SF-295 CNS and in the assay with SW-620 colon was above 100 µM in each case.

As to `CC(=O)OCC(OC(C)=O)C(OC(C)=O)C(OC(C)=O)C(C=NN(C(C)=O)S(=O)(=O)c1ccc(/C=C2\NC(=O)N(C)C2=O)cc1)OC(C)=O` (stereo unspecified), the TGI was above 100 µM in the assay with A498 renal; above 100 µM with A549 NSCLC; above 100 µM with COLO 205 colon; 32 µM and > 100 µM with HCC-2998 colon; 47.2 µM and 37.4 µM in the assay with HCT-116 colon; 61.9 µM and 67.1 µM with HCT-15 colon. In addition, the TGI is above 100 µM in the assay with HS 578T breast; above 100 µM with KM12 colon; above 100 µM in the assay on M14 melanoma; 37.5 µM and 52.1 µM in the assay on MALME-3M melanoma; above 100 µM in the assay on MCF7 breast; above 100 µM with MDA-MB-435. Moreover, the TGI with MOLT-4 leukemia was 45.6 µM; in the assay with NCI/ADR-RES ovarian, above 100 µM; with OVCAR-5 ovarian, above 100 µM; in the assay on RPMI-8226 leukemia, 49.8 µM and 65.8 µM; with RXF 393 renal it was 34.4 µM and 52.1 µM; in the assay on SF-295 CNS it was above 100 µM. The TGI with SW-620 colon was 83.7 µM and 97.7 µM.

With `CNC(=O)c1n[nH]nc1Sc1c([N+](=O)[O-])ncn1C`, the TGI in the assay with A498 renal, with A549 NSCLC, with COLO 205 colon, in the assay on HCC-2998 colon, in the assay on HCT-116 colon and in the assay with HCT-15 colon was above 100 µM in each case. In addition, the TGI in the assay on HOP-92 NSCLC, with HS 578T breast, in the assay with KM12 colon, with M14 melanoma, with MCF7 breast and in the assay on MDA-MB-435 was above 100 µM in each case. Also, the TGI in the assay with MOLT-4 leukemia, in the assay on NCI/ADR-RES ovarian, in the assay with OVCAR-5 ovarian, in the assay on RXF 393 renal, in the assay on SF-295 CNS and with SW-620 colon was above 100 µM in each case.

On to `C=CCN1C(=O)/C(=C/c2ccc(OC)cc2)NC1=S`, for which the TGI in the assay with A498 renal, in the assay on A549 NSCLC, in the assay with COLO 205 colon, with HCC-2998 colon, in the assay with HCT-116 colon and in the assay on HCT-15 colon was above 100 µM throughout. Moreover, the TGI in the assay with HOP-92 NSCLC, with HS 578T breast, in the assay with KM12 colon, in the assay with M14 melanoma, in the assay with MCF7 breast and with MDA-MB-435 was above 100 µM each time. The TGI in the assay on MOLT-4 leukemia was 25.6 µM; in the assay on NCI/ADR-RES ovarian it was above 100 µM; in the assay on OVCAR-5 ovarian, above 100 µM; with RPMI-8226 leukemia it was above 100 µM; in the assay with RXF 393 renal it was above 100 µM; in the assay with SF-295 CNS it was above 100 µM. For the same compound, the TGI in the assay on SW-620 colon was above 100 µM.

The values are drawn from PubChem BioAssay (NCI).
